Assay results: patent US10525115B2 (Immatics Biotechnologies GmbH, priority 2014, dated 2020)
One block for each substance: values may come before it.

Experiments:
MHC class I = MHC class I binding assay (UV-exchange, β2m ELISA); set-up: species or system human; settings: yield of UV-exchange reaction
Method: Candidate peptides for T cell based therapies according to the present invention were further tested for their MHC binding capacity (affinity). The individual peptide-MHC complexes were produced by exchange with the peptide of interest as analyzed. Only peptide candidates that can effectively bind and stabilize the peptide-receptive MHC molecules prevent dissociation of the MHC complexes. To determine the yield of the exchange reaction, an ELISA was performed based on the detection of the light chain (β2m) of stabilized MHC complexes. The assay was performed as generally described in Rodenko et al. (Rodenko, B. et al., Nat Protoc. 1 (2006): 1120-1132).
96 well MAXISorp plates (NUNC) were coated over night with 2 ug/ml streptavidin in PBS at room temperature, washed 4× and blocked for 1 h at 37° C. in 2% BSA containing blocking buffer. Refolded HLA-A*0201/MLA-001 monomers served as standards, covering the range of 15-500 ng/ml. Peptide-MHC monomers of the UV-exchange reaction were diluted 100 fold in blocking buffer. Samples were incubated for 1 h at 37° C., washed four times, incubated with 2 μg/ml HRP conjugated anti-β2m for 1 h at 37° C., washed again and detected with TMB solution that is stopped with […]. Absorption was measured at 450 nm. Candidate peptides that show a high exchange yield (preferably higher than 50%, most preferred higher than 75%) are generally preferred for a generation and production of antibodies or fragments thereof, and/or T cell receptors or fragments thereof, as they show sufficient avidity to the MHC molecules and prevent dissociation of the MHC complexes.
MHC class I binding scores for the peptides as tested were; <20%=+; 20%-49%=++; 50%−75%=+++; >=75%=++++

HLA-DR2 = HLA-DR2 (Homo sapiens, UniProt P01903+P01911); assay: REVEAL MHC-peptide binding assay; settings: for binding / complex formation: HLA-DR2
Method: (§1) The promiscuous binding of GALNT7-001 and ERGIC1-001 to various HLA-DR haplotypes and the stability of the formed complexes was assessed in an in vitro binding assay.
(§2) The seven investigated HLA-DR haplotypes are selected according to their frequencies in HLA-A*02- and HLA-A*24-positive North American populations. Data are derived from the analysis of 1.35 million HLA-typed volunteers registered in the National Marrow Donor Program (Mori M, Beatty P G, Graves M, Boucher K M, Milford E L (1997). HLA gene and haplotype frequencies in the North American population: the National Marrow Donor Program Donor Registry. Transplantation 64, 1017-1027). The analyzed population was subdivided in the following ethnic groups: Caucasian Americans (N=997,193), African Americans (N=110,057), Asian Americans (N=81,139), Latin Americans (N=100,128), and Native Americans (N=19,203).
(§3) The MHC-peptide binding assay as used determined the ability of each candidate peptide to bind to the selected HLA class II haplotype and stabilize the HLA-peptide complex. For this, the candidate peptides are assembled in vitro with a particular HLA class II protein.
(§4) The binding capacity of a candidate peptide to a particular HLA molecule is compared to a reference peptide with known very strong binding properties (positive control) for each HLA haplotype. Experimental standard errors derive from binding experiments of triplicated positive controls.
(§5) Besides the affinity of a peptide to a particular HLA molecule, the enduring stability of the formed HLA-peptide complex is crucial for the occurrence of an immune response. For this reason the presence of the formed HLA-peptide complex is measured after its incubation for 24 h at 37° C. The stability of the formed MHC-peptide complex is calculated as a ratio of the binding scores at 24 h and the binding scores which are received right after the refolding (accordingly at time 0) in percent.

HLA-DR5 = assay: REVEAL MHC-peptide binding assay; set-up: species or system human; settings: for binding / complex formation: HLA-DR5; for stability of the formed HLA-peptide complex: HLA-DR5, after 24 h at 37° C.
Method: as §1, §2, §3, §4, §5

HLA-DR1 = assay: REVEAL MHC-peptide binding assay; set-up: species or system human; settings: for binding / complex formation: HLA-DR1; for stability of the formed HLA-peptide complex: HLA-DR1, after 24 h at 37° C.
Method: as §1, §2, §3, §4, §5

HLA-DR7 = assay: REVEAL MHC-peptide binding assay; set-up: species or system human; settings: for binding / complex formation: HLA-DR7; for stability of the formed HLA-peptide complex: HLA-DR7, after 24 h at 37° C.
Method: as §1, §2, §3, §4, §5

HLA-DR3 = assay: REVEAL MHC-peptide binding assay; set-up: species or system human
Method: as §1, §2, §3, §4, §5

HLA-DR4 = assay: REVEAL MHC-peptide binding assay; set-up: species or system human; settings: for binding / complex formation: HLA-DR4; for stability of the formed HLA-peptide complex: HLA-DR4, after 24 h at 37° C.; for binding score: HLA-DR4, compared to the positive control, over 15% = strong binding
Method: as §1, §2, §3, §4, §5

HLA-DR6 = assay: REVEAL MHC-peptide binding assay; set-up: species or system human
Method: as §1, §2, §3, §4, §5

HLA-DR haplotypes = assay: REVEAL MHC-peptide binding assay, panel of seven HLA-DR haplotypes; set-up: species or system human; settings: for number of formed HLA-peptide complexes stable for at least 24 h: of 5 formed complexes, 37° C.; for number of HLA-DR haplotypes with considerable binding capacity / number of HLA-DR haplotypes with which a complex was formed: of 7 investigated HLA-DR haplotypes
Method: as §1, §2, §3, §4, §5

AML patient PBMC = assay: 12-day recall IFN-γ ELISPOT assay, HLA class II LiTAPs, AML patient PBMC; assay type: cell-based, human; settings: HLA class II peptide
Method: (§6) PBMC from AML patients and healthy volunteers were cultured in RPMI1640 medium (Gibco) supplemented with 10% pooled human serum (PHS, produced in-house), […] β-mercaptoethanol (Roth, Karlsruhe, Germany) and 1% penicillin/streptomycin (GE). For CD8^+ T cell stimulation, PBMC were thawed and pulsed with 1 μg/ml per peptide. Peptide-pulsed PBMC (5-6×10^6 cells/ml) were cultured at 37° C. and 5% CO2 for 12 days. On day 0 and day 1, 5 ng/ml IL-4 (R&D Systems, Minneapolis, Minn., USA) and 5 ng/ml IL-7 (Promokine, Heidelberg, Germany) were added to the culture medium. On days 3, 5, 7 and 9, 2 ng/ml IL-2 (R&D Systems) were added to the culture medium. Peptide-stimulated PBMC were functionally characterized by ELISPOT assays on day 12 and by intracellular cytokine staining on day 13 respectively. For CD4^+ T-cell stimulation, culture was performed as described for CD8^+ T cells with 2 modifications: pulsing was carried out with 10 μg/ml of HLA class II peptide and no IL-4 and IL-7 was added.
(§7) IFN-γ ELISPOT assays were carried out as described previously (Widenmeyer M, Griesemann H, Stevanovic S, Feyerabend S, Klein R, Attig S, et al. Promiscuous survivin peptide induces robust CD4+ T-cell responses in the majority of vaccinated cancer patients. Int J Cancer. 2012 Jul. 1; 131(1):140-9). In brief, 96-well nitrocellulose plates (Millipore) were coated with 1 mg/ml IFN-γ mAb (Mabtech, Cincinnati, Ohio, USA) and incubated over night at 4° C. Plates were blocked with 10% PHS for 2 h at 37° C. 5×10^5 cells/well of pre-stimulated PBMC were pulsed with 1 μg/ml (HLA class I) or 2.5 μg/ml (HLA class II) peptide and incubated for 24-26 h. Readout was performed according to manufacturer's instructions. Spots were counted using an ImmunoSpot S5 analyzer (CTL, Shaker Heights, Ohio, USA). T cell responses were considered to be positive when >15 spots/well were counted and the mean spot count per well was at least 3-fold higher than the mean number of spots in the negative control wells (according to the cancer immunoguiding program (CIP) guidelines).

healthy donor PBMC = assay: Cross-checking IFN-γ ELISPOT assay, HLA class II LiTAPs, healthy donor PBMC; assay type: cell-based, human; settings: HLA class II peptide
Method: as §6, §7

Chain of HLA-DR2 (P01903 26-216 limits assumed): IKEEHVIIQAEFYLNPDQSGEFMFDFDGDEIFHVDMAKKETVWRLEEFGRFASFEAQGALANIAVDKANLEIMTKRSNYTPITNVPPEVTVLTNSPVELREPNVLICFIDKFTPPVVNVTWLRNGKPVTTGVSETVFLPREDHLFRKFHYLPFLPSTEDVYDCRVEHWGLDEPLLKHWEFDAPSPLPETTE
Chain of HLA-DR2 (P01911 30-227 limits assumed): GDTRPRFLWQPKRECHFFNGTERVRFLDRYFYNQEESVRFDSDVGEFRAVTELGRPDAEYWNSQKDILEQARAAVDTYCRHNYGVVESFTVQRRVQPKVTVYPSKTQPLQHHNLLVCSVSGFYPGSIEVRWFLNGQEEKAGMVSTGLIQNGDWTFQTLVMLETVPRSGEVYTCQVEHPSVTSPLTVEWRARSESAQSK

Substance: 36 (SLLYKVPYV; listed as Homo sapiens) [compound 36]
Peptide exchange (MHC class I binding score) (MHC class I): ++++ (>=75%=++++)

Substance: FEGQFSINKVPGNFHVS (listed as Homo sapiens) [SEQ ID NO 604]
binding / complex formation (HLA-DR2): form a complex
binding / complex formation (HLA-DR5): form a complex
stability of the formed HLA-peptide complex (HLA-DR5): stable
binding score (HLA-DR5; HLA-DR5, compared to the positive control, over 15% = strong binding): ≥ 15%
binding / complex formation (HLA-DR1): form a complex
stability of the formed HLA-peptide complex (HLA-DR1): stable
binding / complex formation (HLA-DR7): form a complex
stability of the formed HLA-peptide complex (HLA-DR7): stable
binding / complex formation (HLA-DR3): did not bind
binding / complex formation (HLA-DR4): form a complex
stability of the formed HLA-peptide complex (HLA-DR4): stable
binding score (HLA-DR4): ≥ 15%
binding / complex formation (HLA-DR6): did not bind
number of formed HLA-peptide complexes stable for at least 24 h (HLA-DR haplotypes): 4
number of HLA-DR haplotypes with considerable binding capacity (HLA-DR haplotypes): at least 2
number of HLA-DR haplotypes with which a complex was formed (HLA-DR haplotypes): 5

Substance: GNQLFRINEANQLMQ (listed as Homo sapiens) [SEQ ID NO 597]
binding / complex formation (HLA-DR2): form a complex
binding score (HLA-DR2; HLA-DR2, compared to the positive control, over 15% = strong binding): over 15%
binding / complex formation (HLA-DR5): form a complex
stability of the formed HLA-peptide complex (HLA-DR5): stable
binding / complex formation (HLA-DR1): form a complex
stability of the formed HLA-peptide complex (HLA-DR1): stable
binding score (HLA-DR1; HLA-DR1, compared to the positive control, over 15% = strong binding): over 15%
binding / complex formation (HLA-DR7): form a complex
stability of the formed HLA-peptide complex (HLA-DR7): stable
binding score (HLA-DR7; HLA-DR7, compared to the positive control, over 15% = strong binding): over 15%
binding / complex formation (HLA-DR3): did not bind
binding / complex formation (HLA-DR4): form a complex
stability of the formed HLA-peptide complex (HLA-DR4): stable
binding score (HLA-DR4): over 15%
binding / complex formation (HLA-DR6): did not bind
number of formed HLA-peptide complexes stable for at least 24 h (HLA-DR haplotypes): 4
number of HLA-DR haplotypes with considerable binding capacity (HLA-DR haplotypes): at least 4
number of HLA-DR haplotypes with which a complex was formed (HLA-DR haplotypes): 5

Substance: HRSFVDLSGHNLANPHP (listed as Homo sapiens) [SEQ ID NO 478]
T cell responses (IFN-γ ELISPOT), share of AML patients (AML patient PBMC): 26.7%
T cell responses (IFN-γ ELISPOT) in AML patients (positive/tested) (AML patient PBMC; listed as PII1): significant increase in IFN-γ production
T cell responses (IFN-γ ELISPOT) in AML patients (positive/tested) (AML patient PBMC; listed as P^II1): 4/15
IFN-γ secretion in ELISPOT, healthy donor PBMC (positive/tested) (healthy donor PBMC): 0/8

Substance: SPNIVIALSGNKADLA (listed as Homo sapiens) [SEQ ID NO 558]
T cell responses (IFN-γ ELISPOT), share of AML patients (AML patient PBMC): 20.0%
T cell responses (IFN-γ ELISPOT) in AML patients (positive/tested) (AML patient PBMC; listed as P[[I]]II2): significant increase in IFN-γ production
T cell responses (IFN-γ ELISPOT) in AML patients (positive/tested) (AML patient PBMC; listed as P^II2): 3/15
IFN-γ secretion in ELISPOT, healthy donor PBMC (positive/tested) (healthy donor PBMC): 0/8

Substance: TEGQFVDLTGNRLTYT (listed as Homo sapiens) [SEQ ID NO 544]
T cell responses (IFN-γ ELISPOT), share of AML patients (AML patient PBMC): 13.3%
T cell responses (IFN-γ ELISPOT) in AML patients (positive/tested) (AML patient PBMC; listed as P[[I]]II3): significant increase in IFN-γ production
T cell responses (IFN-γ ELISPOT) in AML patients (positive/tested) (AML patient PBMC; listed as P^II3): 2/15
IFN-γ secretion in ELISPOT, healthy donor PBMC (positive/tested) (healthy donor PBMC): 0/8

Other lines, results leading:

Peptide exchange (MHC class I binding score) (MHC class I): ++++ (>=75%=++++)
Substance: 54 (AVIEAEKIAQV; listed as Homo sapiens) [compound 54]

Peptide exchange (MHC class I binding score) (MHC class I): ++++ (>=75%=++++)
Substance: 251 (VLGGKAFLEHL; listed as Homo sapiens) [compound 251]

Peptide exchange (MHC class I binding score) (MHC class I): ++++ (>=75%=++++)
Substance: 266 (KLQEQLAQL; listed as Homo sapiens) [compound 266]
